# Test results from patent US9181193B2, “Indenoquinolone compound, preparation method and use thereof” (Second Military Medical University, PLA, priority 2010, dated 2015).
# What was measured:
# Type in all cases: cell-based
# [1] = system: A549 (human lung cancer cells); assay: MTT in vitro anti-tumor activity test, A549
# [2] = system: Colo205 (human colon cancer cells); assay: MTT in vitro anti-tumor activity test, Colo205
# [3] = system: MDA-MB-435 (human breast cancer cells); assay: MTT in vitro anti-tumor activity test, MDA-MB-435
# [4] = system: HepG2 (human hepatoma cells); assay: MTT in vitro anti-tumor activity test, HepG2
# [5] = A549 human lung cancer cells, MTT, 72 h
# [6] = Colo205 human colon cancer cells, MTT, 72 h
# [7] = MDA-MB-435, 100 μg/mL, MTT, 72 h
# [8] = MDA-MB-435 human breast cancer cells, MTT, 72 h
# [9] = HepG2 human hepatoma cells, MTT, 72 h
# [10] = MTT assay, 72 h incubation, A549 cells
# [11] = inhibition at 100 μg/mL, MTT assay, 72 h, A549 cells
# [12] = MTT assay, 72 h incubation, Colo205 cells
# [13] = inhibition at 100 μg/mL, MTT assay, 72 h, Colo205 cells
# [14] = MTT assay, 72 h incubation, MDA-MB-435 cells
# [15] = inhibition at 100 μg/mL, MTT assay, 72 h, MDA-MB-435 cells
# [16] = MTT assay, 72 h incubation, HepG2 cells
# [17] = inhibition at 100 μg/mL, MTT assay, 72 h, HepG2 cells
"A549 IC50 [1, 5] [µg/mL]","Colo205 IC50 [2, 6] [µg/mL]","MDA-MB-435 IC50 [3, 8] [µg/mL]","HepG2 IC50 [4, 9] [µg/mL]","A549 IC50 [1, 10] [µg/mL]","Colo205 IC50 [2, 12] [µg/mL]","MDA-MB-435 IC50 [3, 14] [µg/mL]","HepG2 IC50 [4, 16]",SMILES,"A549 100 μg/mL IC % ([1]; A549, 100 μg/mL, MTT, 72 h) [%]","Colo205 100 μg/mL IC % ([2]; Colo205, 100 μg/mL, MTT, 72 h) [%]","MDA-MB-435 100 μg/mL IC % [3, 7] [%]","HepG2 100 μg/mL IC % ([4]; HepG2, 100 μg/mL, MTT, 72 h) [%]","A549 100 μg/mL IC % [1, 11] [%]","Colo205 100 μg/mL IC % [2, 13] [%]","MDA-MB-435 100 μg/mL IC % [3, 15] [%]","HepG2 100 μg/mL IC % [4, 17] [%]","IC50 ([1]; Homo sapiens, A549, 72 h, read-out: A549 IC50) [µg/mL]","IC50 ([2]; Homo sapiens, COLO 205, 72 h, read-out: Colo205 IC50) [µg/mL]","IC50 ([3]; Homo sapiens, MDA-MB-435, 72 h, read-out: MDA-MB-435 IC50) [µg/mL]","IC50 ([4]; Homo sapiens, HepG2, 72 h, read-out: HepG2 IC50) [µg/mL]"
3.04,1.16,0.585,3.19,,,,,CN(C)CCCOc1nc2ccccc2c2c1-c1ccc(Cl)cc1C2=O [Compound 12],88.18,100,100,100,,,,,,,,
,,,,>100,34.21,83.60,>100 µg/mL,COc1ccc2c(c1)c1c(c(=O)n2CCn2ccnc2)-c2ccc(Br)cc2C1=O [Compound 43],,,,,4.26,87.42,53.07,9.73,,,,
10.32,5.15,8.92,10.78,,,,,COc1ccc2c(c1)C(=O)c1c-2c(OCCN2CCCCC2)nc2cc(OC)c(OC)cc12 [Compound 24],93.92,98.38,90.85,98.55,,,,,,,,
,,,,6.58,6.82,19.78,≈100 μg/mL,COc1ccc2c(c1)C(=O)c1c-2c(=O)n(CCCN(C)C)c2ccccc12 [Compound 34],,,,,100,99.54,100,49.68,,,,
,,,,8.58,7.45,10.73,6.92 µg/mL,COc1ccc2c(c1)C(=O)c1c-2c(=O)n(CCN2CCCC2)c2ccccc12 [Compound 32],,,,,92.32,92.85,96.48,70.03,,,,
,,,,19.04,3.89,3.88,20.09 µg/mL,CN(C)CCn1c(=O)c2c(c3ccccc31)C(=O)c1cc(Cl)ccc1-2 [Compound 35],,,,,72.15,100,100,100,,,,
,,,,78.22,28.58,28.86,61.69 µg/mL,CCN(CC)CCn1c(=O)c2c(c3ccccc31)C(=O)c1cc(Cl)ccc1-2 [Compound 36],,,,,61.01,79.84,83.69,59.74,,,,
,,,,10.60,1.66,5.30,8.33 µg/mL,COc1cc2c3c(c(=O)n(CCN(C)C)c2cc1OC)-c1ccc(Cl)cc1C3=O [Compound 47],,,,,87.20,88.74,100,64.50,,,,
,,,,,,,,"CC[C@@]1(O)C(=O)OCc2c1cc1n(c2=O)Cc2cc3cc(O)ccc3nc2-1 [HCPT, 10-hydroxycamptothecin, reference compound]",84.68,88.14,96.71,100,84.68,88.14,96.71,100,0.00364,0.0049,0.00127,0.147
>100,25.50,91.52,56.61,,,,,COc1cc2nc(OCCn3ccnc3)c3c(c2cc1OC)C(=O)c1cc(Cl)ccc1-3 [Compound 27],35.12,66.27,51.23,57.51,,,,,,,,
